Measured values: publication PMC11151938 (Nature, 2024)

Key:
[1] = test system: primary MEFs infected with PR8; test: IAV-induced necroptosis in primary MEFs; type: cell-based, mouse; settings: PR8 MOI 2, zVAD 50 μM
[2] = test system: panel of 90 non-mutant human kinases; settings: FDA-approved TKIs, comparison values; cited from earlier work
Ripk3−/− MEFs = test: RIPK1 kinase-driven cell death in Ripk3−/− MEFs; type: cell-based, mouse; settings: TNFα + TAK1 inhibitor
RIPK3 [3] = target: T1, RIPK3 (Homo sapiens, UniProt Q9Y572); settings: cited from earlier work
T1 sequence (Q9Y572 1-313): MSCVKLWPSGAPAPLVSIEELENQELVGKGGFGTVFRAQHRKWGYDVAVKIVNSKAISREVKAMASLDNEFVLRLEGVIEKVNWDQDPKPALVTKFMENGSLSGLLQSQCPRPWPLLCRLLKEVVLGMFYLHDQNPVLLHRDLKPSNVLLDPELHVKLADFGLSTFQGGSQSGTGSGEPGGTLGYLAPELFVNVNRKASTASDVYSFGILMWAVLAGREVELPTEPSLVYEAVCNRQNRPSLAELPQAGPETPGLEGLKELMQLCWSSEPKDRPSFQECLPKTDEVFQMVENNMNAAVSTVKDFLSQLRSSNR

RIPK3 [4] = settings: cited from earlier work
RIPK3 [5] = target: T1, RIPK3; test: In vitro RIPK3 kinase assay; type: biochemical
necroptosis in cells = test: Necroptosis blockade in cells; type: cell-based; settings: read-out: blocking necroptosis in cells IC50
influenza = settings: mice and humans ref 36, 37; cited from earlier work

With `CCCS(=O)(=O)Nc1cc(-c2cc(-c3ccc(N4CCNCC4)cc3)cnc2N)cc(F)c1OC` [CSLP37] the IAV-triggered necroptosis [1] was “neither the ABL inhibitor imatinib (Gleevec) nor the selective RIPK2 inhibitor CSLP37[32] blocked IAV-triggered necroptosis”.

In the case of `Cc1nc(Nc2ncc(C(=O)Nc3c(C)cccc3Cl)s2)cc(N2CCN(CCO)CC2)n1` [Dasatinib], the “S(35) selectivity score” value [2] is listed as 0.28.

In the case of `N#Cc1cc(N2CCC(C(=O)N3N=CC[C@H]3c3cc(F)cc(F)c3)CC2)ncn1` [GSK’547], the “activity against RIPK1 kinase-driven cell death” value (Ripk3−/− MEFs) is reported as “able to block such death”.

For `CNC(=O)c1ccc2c(c1)ncn2-c1ccc(CC(=O)OC(C)(C)C)cc1` [GSK’840], the “activity against recombinant RIPK3 in vitro” value (RIPK3 [3]) is listed as “potent activity” and the activity in cells (RIPK3 [4]) is listed as “unexpectedly modest activity”.

In the case of `Cc1cc(-c2cnc(N)c3c(-c4ccc5scnc5c4)csc23)n(C)n1` [GSK’843], the “activity against recombinant RIPK3 in vitro” value (RIPK3 [3]) is given as “potent activity” and the activity in cells (RIPK3 [4]) is given as “unexpectedly modest activity”.

For `CC(C)S(=O)(=O)c1ccc2nccc(Nc3ccc4scnc4c3)c2c1` [GSK’872], the activity in cells (RIPK3 [4]) is given as “unexpectedly modest activity”.

`CCN(CC)CCOc1ccc(Nc2ncc3cc(-c4c(Cl)cccc4Cl)c(=O)n(C)c3n2)cc1` [PD166285] showed an IC50 (RIPK3 [5]) of 1080 nM and an IC50 (necroptosis in cells) of 2880 nM.

For `CNC(=O)c1cc(Oc2ccc(NC(=O)Nc3ccc(Cl)c(C(F)(F)F)c3)cc2)ccn1` [Sorafenib], the “S(35) selectivity score” value [2] is listed as 0.22.

With `Cc1ccc(NC(=O)c2ccc(CN3CCN(C)CC3)cc2)cc1Nc1nccc(-c2cccnc2)n1` [imatinib] the IAV-triggered necroptosis [1] was “neither the ABL inhibitor imatinib (Gleevec) nor the selective RIPK2 inhibitor CSLP37[32] blocked IAV-triggered necroptosis”.

In the case of `CCOC(=O)C1=C[C@@H](OC(CC)CC)[C@H](NC(C)=O)[C@@H](N)C1` [oseltamivir], the “time of administration after infection beyond which therapeutic benefit is lost” value (influenza) is given as “more than 48 h”.
